Assay results: patent publication US20210032257A1, “(E)-1-(4-(DIMETHYLAMINO)BUT-2-ENOYL)PYRROLIDIN-3-YL 4-((3-ISOPROPYL-5-METHYLPYRAZOLO[1,5-A]PYRIMIDIN-7-YL)AMINO)PIPERIDINE-1-CARBOXYLATE FOR INHIBITING CDK7” (Eli Lilly and Company, priority 2017, published 2021)

Tests used:
Test in all cases: Biomarker study proliferation (CellTiter-Glo)
Type in all cases: cell-based
A549 = test system: A549
In short: (§1)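 Luminescence from CellTiter-Glo, read 15 minutes after reagent addition, measures viable cells after a seven-day compound exposure at 37 °C. Plating is 5000 cells per well in recommended medium such as RPMI 1640 with 10% FBS.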

CORL311 = test system: CORL311
In short: as §1

EGL1 = test system: EGL1
In short: as §1

HCC70 = test system: HCC70
In short: as §1

HLF = test system: HLF
In short: as §1

HS294T = test system: HS294T
In short: as §1

JHH7 = test system: JHH7
In short: as §1

KYSE180 = test system: KYSE180
In short: as §1

LN18 = test system: LN18
In short: as §1

NCIH1092 = test system: NCIH1092
In short: as §1

NCIH524 = test system: NCIH524
In short: as §1

NCIH69 = test system: NCIH69
In short: as §1

SKMEL28 = test system: SKMEL28
In short: as §1

SKMES1 = test system: SKMES1
In short: as §1

T84 = test system: T84
In short: as §1

TGW = test system: TGW
In short: as §1

TOV112D = test system: TOV112D
In short: as §1

U118MG = test system: U118MG
In short: as §1

ZR751 = test system: ZR751
In short: as §1

[1] = 168 h, read-out: Anti-proliferation effect IC50

Cc1cc(NC2CCN(C(=O)O[C@H]3CCN(C(=O)/C=C/CN(C)C)C3)CC2)n2ncc(C(C)C)c2n1 [Example 1, [(3S)-1-[(E)-4-(dimethylamino)but-2-enoyl]pyrrolidin-3-yl] 4-[(3-isopropyl-5-methyl-pyrazolo[1,5-a]pyrimidin-7-yl)amino]piperidine-1-carboxylate] was tested, and the “Anti-proliferation effect % Inh.” value (A549; A549, LUNG, 7 days) was 64%, the “Anti-proliferation effect Outcome” value (A549; A549, LUNG, 7 days) was “Cytostatic (cytostatic (IC50<1 μM and % inhibition <70%))” and the IC50 (A549; Homo sapiens, A549, 168 h, read-out: Anti-proliferation effect IC50) was 0.139 µM. For the same molecule, the IC50 (CORL311; [1]) was 0.095 µM, the “Anti-proliferation effect % Inh.” value (CORL311; CORL311, LUNG, 7 days) was 75% and the “Anti-proliferation effect Outcome” value (CORL311; CORL311, LUNG, 7 days) was “Cytotoxic (cytotoxic (IC50<1 μM and % inhibition ≥70%))”. For the same molecule, the IC50 (EGL1; [1]) was 0.041 µM, the “Anti-proliferation effect % Inh.” value (EGL1; EGL1, 7 days) was 95% and the “Anti-proliferation effect Outcome” value (EGL1; EGL1, 7 days) was “Cytotoxic (cytotoxic (IC50<1 μM and % inhibition ≥70%))”. For the same molecule, the “Anti-proliferation effect % Inh.” value (HCC70; HCC70, BREAST, 7 days) was 89%, the “Anti-proliferation effect Outcome” value (HCC70; HCC70, BREAST, 7 days) was “Cytotoxic (cytotoxic (IC50<1 μM and % inhibition ≥70%))” and the IC50 (HCC70; Homo sapiens, HCC70, 168 h, read-out: Anti-proliferation effect IC50) was 0.038 µM. For the same molecule, the IC50 (HLF; [1]) was 0.017 µM, the “Anti-proliferation effect % Inh.” value (HLF; LIVER, 7 days) was 100% and the “Anti-proliferation effect Outcome” value (HLF; LIVER, 7 days) was “Cytotoxic (cytotoxic (IC50<1 μM and % inhibition ≥70%))”. The “Anti-proliferation effect % Inh.” value (HS294T; HS294T, SKIN, 7 days) was 84%, the “Anti-proliferation effect Outcome” value (HS294T; HS294T, SKIN, 7 days) was “Cytotoxic (cytotoxic (IC50<1 μM and % inhibition ≥70%))” and the IC50 (HS294T; Homo sapiens, Hs 294T, 168 h, read-out: Anti-proliferation effect IC50) was 0.02 µM. For the same molecule, the IC50 (JHH7; JHH7, 168 h, read-out: Anti-proliferation effect IC50) was 0.027 µM, the “Anti-proliferation effect % Inh.” value (JHH7; JHH7, LIVER, 7 days) was 88% and the “Anti-proliferation effect Outcome” value (JHH7; JHH7, LIVER, 7 days) was “Cytotoxic (cytotoxic (IC50<1 μM and % inhibition ≥70%))”. The IC50 (KYSE180; Homo sapiens, KYSE-180, 168 h, read-out: Anti-proliferation effect IC50) was 0.103 µM, the “Anti-proliferation effect % Inh.” value (KYSE180; KYSE180, OESOPHAGUS, 7 days) was 68% and the “Anti-proliferation effect Outcome” value (KYSE180; KYSE180, OESOPHAGUS, 7 days) was “Cytostatic (cytostatic (IC50<1 μM and % inhibition <70%))”. The IC50 (LN18; Homo sapiens, LN-18, 168 h, read-out: Anti-proliferation effect IC50) was 0.015 µM, the “Anti-proliferation effect % Inh.” value (LN18; LN18, CNS, 7 days) was 91% and the “Anti-proliferation effect Outcome” value (LN18; LN18, CNS, 7 days) was “Cytotoxic (cytotoxic (IC50<1 μM and % inhibition ≥70%))”. The IC50 (NCIH1092; Homo sapiens, NCI-H1092, 168 h, read-out: Anti-proliferation effect IC50) was 0.683 µM, the “Anti-proliferation effect % Inh.” value (NCIH1092; NCIH1092, LUNG, 7 days) was 42% and the “Anti-proliferation effect Outcome” value (NCIH1092; NCIH1092, LUNG, 7 days) was “Cytostatic (cytostatic (IC50<1 μM and % inhibition <70%))”. For the same molecule, the IC50 (NCIH524; Homo sapiens, NCI-H524, 168 h, read-out: Anti-proliferation effect IC50) was 0.037 µM, the “Anti-proliferation effect % Inh.” value (NCIH524; NCIH524, LUNG, 7 days) was 92% and the “Anti-proliferation effect Outcome” value (NCIH524; NCIH524, LUNG, 7 days) was “Cytotoxic (cytotoxic (IC50<1 μM and % inhibition ≥70%))”. The IC50 (NCIH69; Homo sapiens, NCI-H69, 168 h, read-out: Anti-proliferation effect IC50) was 0.173 µM, the “Anti-proliferation effect % Inh.” value (NCIH69; NCIH69, LUNG, 7 days) was 68% and the “Anti-proliferation effect Outcome” value (NCIH69; NCIH69, LUNG, 7 days) was “Cytostatic (cytostatic (IC50<1 μM and % inhibition <70%))”. The IC50 (SKMEL28; Homo sapiens, SK-MEL-28, 168 h, read-out: Anti-proliferation effect IC50) was 0.098 µM, the “Anti-proliferation effect % Inh.” value (SKMEL28; SKMEL28, SKIN, 7 days) was 61% and the “Anti-proliferation effect Outcome” value (SKMEL28; SKMEL28, SKIN, 7 days) was “Cytostatic (cytostatic (IC50<1 μM and % inhibition <70%))”. The IC50 (SKMES1; Homo sapiens, SK-MES-1, 168 h, read-out: Anti-proliferation effect IC50) was 0.028 µM, the “Anti-proliferation effect % Inh.” value (SKMES1; SKMES1, LUNG, 7 days) was 80% and the “Anti-proliferation effect Outcome” value (SKMES1; SKMES1, LUNG, 7 days) was “Cytotoxic (cytotoxic (IC50<1 μM and % inhibition ≥70%))”. For the same molecule, the IC50 (T84; Homo sapiens, T84, 168 h, read-out: Anti-proliferation effect IC50) was 0.308 µM, the “Anti-proliferation effect % Inh.” value (T84; T84, INTESTINE, 7 days) was 61% and the “Anti-proliferation effect Outcome” value (T84; T84, INTESTINE, 7 days) was “Cytostatic (cytostatic (IC50<1 μM and % inhibition <70%))”. The IC50 (TGW; [1]) was 0.07 µM, the “Anti-proliferation effect % Inh.” value (TGW; TGW, BRAIN, 7 days) was 63% and the “Anti-proliferation effect Outcome” value (TGW; TGW, BRAIN, 7 days) was “Cytostatic (cytostatic (IC50<1 μM and % inhibition <70%))”. For the same molecule, the IC50 (TOV112D; Homo sapiens, 168 h, read-out: Anti-proliferation effect IC50) was 0.025 µM, the “Anti-proliferation effect % Inh.” value (TOV112D; OVARY, 7 days) was 81% and the “Anti-proliferation effect Outcome” value (TOV112D; OVARY, 7 days) was “Cytotoxic (cytotoxic (IC50<1 μM and % inhibition ≥70%))”. The IC50 (U118MG; Homo sapiens, U-118-MG, 168 h, read-out: Anti-proliferation effect IC50) was 1.17 µM, the “Anti-proliferation effect % Inh.” value (U118MG; U118MG, CNS, 7 days) was 42% and the “Anti-proliferation effect Outcome” value (U118MG; U118MG, CNS, 7 days) was “Insensitive (insensitive (IC50≥1 μM))”. For the same molecule, the IC50 (ZR751; Homo sapiens, ZR-75-1, 168 h, read-out: Anti-proliferation effect IC50) was 0.043 µM, the “Anti-proliferation effect % Inh.” value (ZR751; ZR751, BREAST, 7 days) was 69% and the “Anti-proliferation effect Outcome” value (ZR751; ZR751, BREAST, 7 days) was “Cytostatic (cytostatic (IC50<1 μM and % inhibition <70%))”.
